Experimental data published in patent US8846914B2, “Compositions to effect neuronal growth” (Neuralstem, Inc., priority 2003, dated 2014).

Legend:
[1] = tested on: human hippocampal stem cells; assay: Neurogenesis, TuJ1 immunostaining / Hoechst (primary screen); assay type: cell-based
Excerpt: FIG. 2 is a bar graph illustrating an example of a neurogenesis profile of compounds selected from primary screening. After seven days of compound treatment, the cells were stained with the neuron-specific anti-tubulin IIIb antibody. TuJ1, for neurons and Hoechst for all cell nuclei. Shown are the relative ratio of neuron: total cells for each compound over the vehicle control in percentage. Typical ratio for vehicle control is 40-50% neurons. The ratio can change by either increased differentiation of stem cells to neurons, decreased proliferation of astrocytes, or increased proliferation of neuronal progenitors.
FIG. 3 is a bar graph illustrating an example of a neurogenesis profile of compounds selected from primary screening. After seven days of compound treatment, the cells were stained with TuJ1 for neurons. The number of TuJ1+ neurons per area was quantified and expressed as a relative value to the vehicle treated control.
The final neuron number is detected by immunostaining of the culture with antibodies against neurons and is quantified by counting of the immunopositive neurons and/or by measuring the staining intensity. Therefore, after seven days of compound treatment, the cells are stained with the neuron-specific anti-tubulin IIIb antibody, TuJ1, for neurons and Hoechst for all cell nuclei. The number of TuJ1+ neurons per area is quantified and expressed as a value relative to the vehicle-treated control of Hoechst-stained cells. In this regard, the medium is removed from the wells by decanting and blotting the plates on paper towels. The cells are then fixed in 100 μl of 4% paraformaldehyde per well for thirty minutes at room temperature. The cells are washed three times with 400 μl per well of phosphate-buffered saline (PBS) at pH 7.5 for approximately ten minutes per wash. The plates are then stored at 4° C. in PBS or used immediately for staining.
The cells are subsequently stained with antibodies against neuron-specific antigens according to standard procedures. The staining process includes decanting the PBS and blocking the cells with 100 μl of 5% Normal Goat Serum (NGS) in PBS for one hour at room temperature. The NGS/PBS is decanted and the plates are blotted on a paper towel. The cells are then permeabilized with 0.1% Triton X-100 in PBS for 30 minutes at room temperature.
Typical neuron-specific antigens include Type III-beta tubulin and MAP-2c. The total cell number in each well was quantified by staining the cultures with a nuclear dye such as DAPI or Hoechst according to standard procedures. Therefore, once the cells are permeabilized, 20 μl of TuJ1, monoclonal antibody against neuronal class 111 β-tubulin (CoVance (BabCo) MMS-435P) and 32 μl of anti-GFAP polyclonal (DAKO Z0334) are added to and mixed of PBS with 5% NGS. Final dilutions of TuJ1 and anti-GFAP are 1:400 and 1:250, respectively. 90 μl of the antibody solution is added to each well except two eleventh column. 90 μl of PBS/5% NGS is added to the eleventh column and no cells are added to the twelfth column. The plate(s) are sealed with parafilm and incubated at 4° C. overnight.
After incubating the cells overnight, the antibody solution is decanted and 200 μl of PBS/0.1% Triton X-100 is added to the wells. The plate(s) are placed on a shaker and incubated at room temperature with gentle shaking for ten minutes. The cells are again washed with the PBS/Triton X-100 solution another two times.
Following staining with TuJ1 and anti-GFAP, 20 μl of Alexa Fluor 488 labeled goat anti-moose IgG (H+L) (Molecular Probes A-11001) and 100 μl of LRSC-IgG, goat anti-rabbit (Jackson Immune 111-295-144) is added and mixed with 10 ml of PBS/5% NGS. 100 μl of the resulting antibody solution is added to each well. The plate(s) are covered with foil and incubated with gentle shaking for up to one hour at room temperature. The cells are again washed as described above with PBS and an Triton X-100. […]

[2] = tested on: human hippocampal stem cells; settings: positive control; as described in U.S. Ser. No. 10/728,652; cited from earlier work

Molecule	Activity in primary in vitro neurogenesis screen [1]	Increase of the number of neurons and glia [2]
COc1ccc(C2CNC(=O)C2)cc1OC1CCCC1 (centres unmarked) [Rolipram, reference compound]	effective	–
LIF: leukemia inhibitory factor (LIF), a cytokine growth factor, positive control	–	two to three-fold
